This assay has as its target T1, Signal transducer and activator of transcription 3 [702-738,740-752] (Homo sapiens, UniProt P40763).
T1 construct: 702-738,740-752
The assay is described as follows: dose response, counter-screen for STAT1 inhibitor project (AID 1409). On the technique in general: Counterscreens check selectivity or assay interference.

T1 sequence (P40763 as listed by the source): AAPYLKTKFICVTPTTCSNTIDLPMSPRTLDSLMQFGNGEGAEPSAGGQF

`CCN1C(=O)C(=CNNC(=O)c2ccncc2)C(=O)N(CC)C1=S` [SMR000218837]: the IC50 – broadly, the point on the concentration scale where inhibition reaches its midpoint – was greater than 55.7 µM.

The record behind these values is BindingDB's records for doi:10.7270/Q2PZ577D (The Scripps Research Institute Molecular Screening Center, 2008).
